Measured values taken from US8431567B2 (Abbott GmbH & Co. KG, priority 2006, dated 2013).

Biological target: T1, human vasopressin V1b receptor (Homo sapiens, UniProt P47901)
T1 construct: expressed in transfected cells; host or cells: CHO-K1 (cell line hV1b_3H2_CHO), membrane preparation
T1 sequence (P47901 1-424): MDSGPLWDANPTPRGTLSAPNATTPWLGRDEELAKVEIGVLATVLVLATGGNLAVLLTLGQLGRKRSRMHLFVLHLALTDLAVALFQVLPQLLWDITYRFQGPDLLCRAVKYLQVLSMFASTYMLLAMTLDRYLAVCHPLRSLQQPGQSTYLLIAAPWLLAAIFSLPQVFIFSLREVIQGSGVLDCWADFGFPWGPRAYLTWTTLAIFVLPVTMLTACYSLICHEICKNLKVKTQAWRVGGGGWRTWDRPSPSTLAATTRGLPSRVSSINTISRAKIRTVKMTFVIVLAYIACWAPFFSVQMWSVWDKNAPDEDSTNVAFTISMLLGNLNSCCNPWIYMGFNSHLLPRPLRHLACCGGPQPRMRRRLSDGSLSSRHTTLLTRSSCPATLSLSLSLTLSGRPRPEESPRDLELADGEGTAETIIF
Assay: Vasopressin V1b receptor binding test
Conditions: membranes of CHO-K1 cells, displacement of 1.5 nM 3H-AVP
Experimental: • Vasopressin V1b Receptor Binding Test: • Substances:
The test substances were dissolved at a concentration of 10^−2 M in DMSO and diluted further in DMSO to 5×10^−4 M to 5×10^−9 M. These DMSO solutions were diluted 1:10 with test buffer. The concentration of substance was again diluted 1:5 in the test preparation.
The membrane pellet was homogenized and centrifuged again as described, and then taken up in 50 mM Tris-HCl, pH 7.4, homogenized and, frozen in aliquots, stored at −190° C. in liquid nitrogen.
The incubation buffer was: 50 mM Tris, 10 mM MgCl2, 0.1% BSA, pH 7.4. […] The nonspecific binding was determined with 1 μM AVP (Bachem #H1780). All determinations were performed in triplicate. After incubation (60 minutes at room temperature), the free radioligand was filtered off by vacuum filtration (Skatron cell harvester 7000) on Whatman GF/B glass-fibre filter mats and the filters were transferred to scintillation vessels. Liquid scintillation measurement was performed in a Tricarb instrument, Model 2000 or 2200CA (Packard). Conversion of the measured cpm to dpm was performed with the aid of a standard quench series.
The binding parameters were calculated by nonlinear regression in SAS.
For the compounds according to the invention, the affinities for the human vasopressin receptor V1b were measured according to the above test and the affinity constant (Ki) was determined.

Structure (SMILES)	Ki [nM]
CCOc1ccc(C)cc1C1(N2CCN(c3ccncc3)CC2)C(=O)N(S(=O)(=O)c2ccc(OC)cc2OC)c2ccc(C#N)cc21 (racemic) [Example 101, (±)-5-Cyano-1-(2,4-dimethoxy-benzenesulphonyl)-3-(2-ethoxy-5-methylphenyl)-3-(4-pyridin-4-yl-piperazin-1-yl)-2,3-dihydro-1H-indol-2-one]	< 50
CCOc1ccc(OC)cc1C1(N2CCN(C3CCN(C)CC3)CC2)C(=O)N(S(=O)(=O)c2ccc(OC)cc2OC)c2ccc(C#N)cc21 (racemic) [Example 102, (±)-5-Cyano-1-(2,4-dimethoxy-benzenesulphonyl)-3-(2-ethoxy-5-methoxyphenyl)-3-[4-(1-methyl-piperidin-4-yl)-piperazin-1-yl]-2,3-dihydro-1H-indol-2-one]	< 50
CCOc1ccc(CC)cc1C1(N2CCN(c3ccnc(C(C)C)c3)CC2)C(=O)N(S(=O)(=O)c2ccc(OC)cc2OC)c2ccc(C#N)cc21 (racemic) [Example 105, (±)-5-Cyano-1-(2,4-dimethoxy-benzenesulphonyl)-3-(2-ethoxy-5-ethyl-phenyl)-3-[4-(2-isopropyl-pyridin-4-yl)-piperazin-1-yl]-2,3-dihydro-1H-indol-2-one]	< 50
CCOc1ccc(CC)cc1C1(N2CCN(c3ccnc(C)c3)CC2)C(=O)N(S(=O)(=O)c2ccc(OC)cc2OC)c2ccc(C#N)cc21 (racemic) [Example 107, (±)-5-Cyano-1-(2,4-dimethoxy-benzenesulphonyl)-3-(2-ethoxy-5-ethyl-phenyl)-3-[4-(2-methyl-pyridin-4-yl)-piperazin-1-yl]-2,3-dihydro-1H-indol-2-one]	< 50
CCOc1ccc(OC)cc1C1(N2CCN(c3ccncc3)CC2)C(=O)N(S(=O)(=O)c2ccc(OC)cc2OC)c2ccc(C#N)cc21 (single isomer, unassigned; (+)) [Example 96, (+)-5-Cyano-1-(2,4-dimethoxy-benzenesulphonyl)-3-(2-ethoxy-5-methoxyphenyl)-3-(4-pyridin-4-yl-piperazin-1-yl)-2,3-dihydro-1H-indol-2-one]	< 50
CCOc1ccc(OC)cc1C1(N2CCN(c3ccnc(C)c3)CC2)C(=O)N(S(=O)(=O)c2ccc(OC)cc2OC)c2ccc(C#N)cc21 (single isomer, unassigned; (+)) [Example 106, (+)-5-Cyano-1-(2,4-dimethoxy-benzenesulphonyl)-3-(2-ethoxy-5-methoxyphenyl)-3-[4-(2-methyl-pyridin-4-yl)-piperazin-1-yl]-2,3-dihydro-1H-indol-2-one]	< 50
CCOc1ccccc1C1(N2CCN(c3cccnc3)CC2)C(=O)N(S(=O)(=O)c2ccc(OC)cc2OC)c2ccc(C#N)cc21 (centres unmarked) [Example 2, 5-Cyano-1-(2,4-dimethoxy-benzenesulphonyl)-3-(2-ethoxyphenyl)-3-(4-pyridin-3-yl-piperazin-1-yl)-2,3-dihydro-1H-indol-2-one]	50 to 500
COc1ccc(S(=O)(=O)N2C(=O)C(c3ccccc3OC)(N3CCN(c4ccncc4)CC3)c3cc(Cl)ccc32)c(OC)c1 (centres unmarked) [Example 3, 5-Chloro-1-(2,4-dimethoxy-benzenesulphonyl)-3-(2-methoxyphenyl)-3-(4-pyridin-4-yl-piperazin-1-yl)-1,3-dihydro-indol-2-one]	< 50
COc1ccccc1C1(N2CCN(c3ccncc3)CC2)C(=O)N(S(=O)(=O)c2ccc(C#N)cc2)c2ccc(Cl)cc21 (centres unmarked) [Example 4, 4-[5-Chloro-3-(2-methoxyphenyl)-2-oxo-3-(4-pyridin-4-yl-piperazin-1-yl)-2,3-dihydro-indole-1-sulphonyl]-benzonitrile]	50 to 500
COc1ccccc1C1(N2CCN(c3ccncc3)CC2)C(=O)N(S(=O)(=O)c2ccccc2OC)c2ccc(Cl)cc21 (centres unmarked) [Example 5, 5-Chloro-1-(2-methoxy-benzenesulphonyl)-3-(2-methoxyphenyl)-3-(4-pyridin-4-yl-piperazin-1-yl)-1,3-dihydro-indol-2-one]	< 50
COc1ccccc1C1(N2CCN(c3ccncc3)CC2)C(=O)N(S(=O)(=O)c2ccc(C)cc2OC)c2ccc(Cl)cc21 (centres unmarked) [Example 6, 5-Chloro-1-(2-methoxy-4-methyl-benzenesulphonyl)-3-(2-methoxyphenyl)-3-(4-pyridin-4-yl-piperazin-1-yl)-1,3-dihydro-indol-2-one]	< 50
CCOc1ccccc1C1(N2CCN(c3ccncc3)CC2)C(=O)N(S(=O)(=O)c2ccc(C#N)cc2)c2ccc(C#N)cc21 (centres unmarked) [Example 7, 5-Cyano-1-(4-cyano-benzenesulphonyl)-3-(2-ethoxyphenyl)-3-(4-pyridin-4-yl-piperazin-1-yl)-2,3-dihydro-1H-indol-2-one]	50 to 500
CCOc1ccccc1C1(N2CCN(c3ccncc3)CC2)C(=O)N(S(=O)(=O)c2ccccc2OC)c2ccc(C#N)cc21 (centres unmarked) [Example 8, 5-Cyano-3-(2-ethoxyphenyl)-1-(2-methoxy-benzenesulphonyl)-3-(4-pyridin-4-yl-piperazin-1-yl)-2,3-dihydro-1H-indol-2-one]	50 to 500
CCOc1ccccc1C1(N2CCN(c3ccncc3)CC2)C(=O)N(S(=O)(=O)c2ccc(C)cc2OC)c2ccc(C#N)cc21 (centres unmarked) [Example 9, 5-Cyano-3-(2-ethoxyphenyl)-1-(2-methoxy-4-methyl-benzenesulphonyl)-3-(4-pyridin-4-yl-piperazin-1-yl)-2,3-dihydro-1 H-indol-2-one]	50 to 500
CCOc1ccccc1C1(N2CCN(c3ccncc3)CC2)C(=O)N(S(=O)(=O)c2ccc(OC)cc2OC)c2ccc(C#N)cc21 (centres unmarked) [Example 10, 5-Cyano-1-(2,4-dimethoxy-benzenesulphonyl)-3-(2-ethoxyphenyl)-3-(4-pyridin-4-yl-piperazin-1-yl)-2,3-dihydro-1H-indol-2-one]	< 50
COc1ccc(S(=O)(=O)N2C(=O)C(c3ccccc3OC)(N3CCN(c4ccncc4)CC3)c3cc(Cl)ccc32)cc1OC (centres unmarked) [Example 12, 5-Chloro-1-(3,4-dimethoxy-benzenesulphonyl)-3-(2-methoxyphenyl)-3-(4-pyridin-4-yl-piperazin-1-yl)-1,3-dihydro-indol-2-one]	50 to 500
CCOc1ccccc1C1(N2CCN(c3ccncc3)CC2)C(=O)N(S(=O)(=O)c2ccccc2)c2ccc(C#N)cc21 (centres unmarked) [Example 14, 5-Cyano-1-benzenesulphonyl-3-(2-ethoxyphenyl)-3-(4-pyridin-4-yl-piperazin-1-yl)-2,3-dihydro-1H-indol-2-one]	50 to 500
CCOc1ccccc1C1(N2CCN(c3ccncc3)CC2)C(=O)N(S(=O)(=O)c2ccc(F)cc2)c2ccc(C#N)cc21 (centres unmarked) [Example 15, 5-Cyano-3-(2-ethoxyphenyl)-1-(4-fluoro-benzenesulphonyl)-3-(4-pyridin-4-yl-piperazin-1-yl)-2,3-dihydro-1H-indol-2-one]	50 to 500
COc1ccccc1C1(N2CCN(c3ccncc3)CC2)C(=O)N(S(=O)(=O)c2ccccc2)c2ccc(Cl)cc21 (centres unmarked) [Example 16, 1-Benzenesulphonyl-5-chloro-3-(2-methoxyphenyl)-3-(4-pyridin-4-yl-piperazin-1-yl)-1,3-dihydro-indol-2-one]	50 to 500
COc1ccccc1C1(N2CCN(c3ccncc3)CC2)C(=O)N(S(=O)(=O)c2ccc(Cl)cc2)c2ccc(Cl)cc21 (centres unmarked) [Example 18, 5-Chloro-1-(4-chloro-benzenesulphonyl)-3-(2-methoxyphenyl)-3-(4-pyridin-4-yl-piperazin-1-yl)-1,3-dihydro-indol-2-one]	50 to 500
COc1ccc(S(=O)(=O)N2C(=O)C(c3ccccc3OC)(N3CC4CN(c5ccncc5)CC4C3)c3cc(Cl)ccc32)c(OC)c1 (centres unmarked) [Example 19, 5-Chloro-1-(2,4-dimethoxy-benzenesulphonyl)-3-(2-methoxyphenyl)-3-(5-pyridin-4-yl-hexahydro-pyrrolo[3,4-c]pyrrol-2-yl)-1,3-dihydro-indol-2-one]	< 50
COc1ccc(S(=O)(=O)N2C(=O)C(c3ccccc3OC)(N3CCN(c4ccncc4)CC3)c3cc(Cl)ccc32)cc1 (centres unmarked) [Example 20, 5-Chloro-1-(4-methoxy-benzenesulphonyl)-3-(2-methoxyphenyl)-3-(4-pyridin-4-yl-piperazin-1-yl)-1,3-dihydro-indol-2-one]	50 to 500
COc1ccc(S(=O)(=O)N2C(=O)C(c3ccccc3OC)(N3C[C@H]4CN(c5ccncc5)C[C@H]43)c3cc(Cl)ccc32)c(OC)c1 (stereo partly drawn) [Example 21, 5-Chloro-1-(2,4-dimethoxy-benzenesulphonyl)-3-(2-methoxyphenyl)-3-((1R,5S)-3-pyridin-4-yl-3,6-diaza-bicyclo[3.2.0]hept-6-yl)-1,3-dihydro-indol-2-one]	< 50
